Like-named read-outs stand apart in the source and are kept apart here.
Tests used:
[1] = test system: human breast cancer MCF7 cells; assay: In vitro cell viability assay (MTT), MCF7; assay type: cell-based
Procedure: [The source words this procedure for another cell line and reports this cell line under the same test.] The cell viability assay measures how effectively different compounds (i.e., different conjugates or structures) kill cancer cells in vitro. The IC50 value is the compound concentration at which the conjugate kills 50% of the cells, which inhibits 50% of the cells from remaining alive.
For the cell viability assay, the actual potency IC50 values depend on a number of factors, including the length of incubation time. Thus, the cell viability assay is particularly effective for determining the relative toxicity of different compounds.
(§1) Human glioblastoma cells (U87-luc) were seeded in 96-well plates ([…]) and were treated with the compounds of interest at concentrations 1, 3, 10, 30, and 100 µM. At the end of the experiments, the cell cultures were supplemented with MTT reagent (3-(4,5-dimethylthiazol-2-yl)-2,5-diphenyltetrazolium bromide) and incubated for an additional 4 hours. Then, dimethyl sulfoxide ([…]) was added to the cell culture to dissolve the formazan crystals and incubated for 10 minutes at room temperature. The absorbance rate of the cell cultures was read at 570 nm by using a Microplate Reader. All the reactions were performed in triplicate. Measured data of cellular proliferation were calculated using viability values of untreated control cells (100%).

[2] = test system: integrin αvβ3 expressing U87 cells; assay: In vitro cell adhesion assay (U87 cells to fibrinogen); assay type: cell-based, human; details: 2 h, read-out: IC50, inhibition of cell adhesion to fibrinogen
Excerpt: The cell adhesion assay is a cell-based assay that measures how well different compounds (i.e., different conjugates or structures) block the adhesion of integrin αvβ3 expressing U87 cells to fibrinogen, a macromolecule that binds to the integrin αvβ3 receptor. The IC50 value is the compound concentration at which the compound displaces 50% of the cell adhesion to fibrinogen, which inhibits 50% of the cells from adhering to fibrinogen.
The cell adhesion assay is a functional cell assay, so the conjugates cannot be used with chemotherapy attached, because the conjugates will release the chemo over the course of the testing, killing the cells so that no readout can be obtained. Thus, the full conjugate molecule (targeting moiety, PEG, cleavable linker) is used without the chemo for this assay. Two compounds (conjugate 74 and conjugate 59) used are slightly different integrin αvβ3 targeting pieces with a large PEG (PEG 35 and PEG39, respectively), and the VCP cleavable linker attached. […]
96-well microtiter plates were coated with up to […] fibrinogen per well in […] phosphate-buffered saline (PBS) and incubated at 4° C. overnight. […] After washing with PBS, the fluorescence intensity of adherent cells was measured at an emission wavelength of 530 nm using an excitation wavelength of 485 nm by using a Microplate Reader.

[3] = test system: human glioblastoma U87 cells; assay: In vitro cell viability assay (MTT), U87; assay type: cell-based; details: for cell viability result in words: U87 and MCF7 cells; for IC50: U87 cells
Procedure: The cell viability assay measures how effectively different compounds (i.e., different conjugates or structures) kill cancer cells in vitro.
For the cell viability assay, the actual potency IC50 values depend on a number of factors, including the length of incubation time.
as §1

[4] = test system: CWR-R1ca-Luc cells; assay: In vivo efficacy, prostate cancer tumors in nude mice; details: for average prostate cancer tumor volume: 0.5 mole of compound/kg mouse each day, subcutaneous, 3 weeks; for IVIS average photons (viable tumor tissue) / average prostate cancer tumor weight: at conclusion of 3 weeks, daily subcutaneous dosing
Procedure: (§2) The animal model and treatment used a total of 50 Athymic Nude-Foxn1^nu male mice which were purchased from Envigo, Indianapolis, IN, USA. The mice were housed in a clean room under strict conditions. Under the approval of the Institutional Animal Care and Use Committee, all animal protocols were carried out in line with the National Institute of Health Guide for the Care and Use of Laboratory Animals. Once cells reached 70-80% confluency, the cells were collected and counted. About 2×10^6 CWR-R1ca-Luc cells were mixed in 1:1 Matrigel® Matrix (Life Sciences, Tewksbury, MA) and injected subcutaneously into the flank of each mouse. Measurement of tumor volume of prostate cancer tumors of mice and mice weights were taken biweekly. When a palpable tumor developed, size 300-500 mm^3, mice were randomized into 10 groups with 5 mice in each group. The corresponding treatment was injected subcutaneously every day per each group up to 3 weeks. Before starting the treatment, the mice were injected with luciferin 150 mg/kg intraperitoneally. After 20 minutes, the mice were anesthetized in an induction chamber using 2% isoflurane, and bioluminescence images were taken using IVIS® Lumina III In Vivo Imaging System (PerkinElmer, Boston, MA) as a base line. Before the end of the experiment, the imaging process was repeated for all mice groups.
(§3) All compounds were dosed at 0.5 mole of compound/kg mouse each day. Thus, a 20 g mouse was dosed at […] of compound per day, and larger mice were dosed at correspondingly higher doses in proportionality to mouse body weight. […] The concentration of each formulation was adjusted so that each dose would be 10 μL solution/g mouse.
FIGS. 4A, 4B, 5, 6 and 7 all pertain to the same experiment conducted with mice having prostate cancer over a study period of three weeks.

[5] = Body weight of tumor-bearing mice (toxicity); assay type: in vivo; details: daily subcutaneous dosing; for toxicity indicated by body weight: 3 weeks; for average body weight: at conclusion of 3 weeks
Procedure: as §2, §3
FIG. 7 is a bar graph of average body weight of the mice at the conclusion of the study period of three weeks for conjugate 59, conjugate 61, conjugate 62, MMAE chemo, and PBS (control), in accordance with embodiments of the present invention. Average body weight changes over the course of the study relative to control, particularly due to loss of body weight, which can relate to toxicity of the treatment group.

[6] = Solubility in PBS on formulation; assay type: physicochemical; details: formulation for dosing
Procedure: as §3

[7] = target: T1, integrin αvβ3 receptor (Homo sapiens, UniProt P05106+P06756); assay: In vitro integrin αvβ3 binding assay; details: immobilized integrin αvβ3; read-out: IC50, displacement of labelled integrin αvβ3 ligand
T1 construct: purchased ACRO Biosystems (Newark, DE) and/or Bioss Inc (Woburn, MA)
T1 sequence (P06756 31-992 limits assumed): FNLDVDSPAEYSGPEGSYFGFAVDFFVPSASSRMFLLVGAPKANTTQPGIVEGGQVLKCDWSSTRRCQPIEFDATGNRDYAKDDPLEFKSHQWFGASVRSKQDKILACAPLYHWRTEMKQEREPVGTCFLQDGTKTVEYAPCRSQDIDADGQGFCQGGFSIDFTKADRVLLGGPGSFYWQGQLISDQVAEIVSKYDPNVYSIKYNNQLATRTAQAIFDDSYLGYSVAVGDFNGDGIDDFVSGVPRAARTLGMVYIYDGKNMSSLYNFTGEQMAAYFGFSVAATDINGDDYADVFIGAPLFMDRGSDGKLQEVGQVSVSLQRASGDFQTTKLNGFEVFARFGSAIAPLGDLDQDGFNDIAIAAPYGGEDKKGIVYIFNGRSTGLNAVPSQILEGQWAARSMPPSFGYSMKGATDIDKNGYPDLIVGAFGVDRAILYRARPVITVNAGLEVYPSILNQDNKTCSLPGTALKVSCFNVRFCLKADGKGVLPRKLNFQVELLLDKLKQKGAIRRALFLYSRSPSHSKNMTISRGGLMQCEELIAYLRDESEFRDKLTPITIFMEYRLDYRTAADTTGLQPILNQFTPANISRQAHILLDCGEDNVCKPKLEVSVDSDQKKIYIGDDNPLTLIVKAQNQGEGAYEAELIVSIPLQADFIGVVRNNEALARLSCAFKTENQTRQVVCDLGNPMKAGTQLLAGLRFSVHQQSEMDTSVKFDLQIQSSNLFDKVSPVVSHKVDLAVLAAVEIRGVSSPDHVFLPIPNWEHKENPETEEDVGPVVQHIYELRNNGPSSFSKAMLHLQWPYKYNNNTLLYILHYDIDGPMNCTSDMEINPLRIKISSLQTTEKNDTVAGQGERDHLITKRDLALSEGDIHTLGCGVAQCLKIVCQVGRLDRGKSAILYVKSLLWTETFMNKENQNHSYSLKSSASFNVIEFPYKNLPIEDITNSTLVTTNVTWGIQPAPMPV
T1 sequence (P05106 27-718 limits assumed): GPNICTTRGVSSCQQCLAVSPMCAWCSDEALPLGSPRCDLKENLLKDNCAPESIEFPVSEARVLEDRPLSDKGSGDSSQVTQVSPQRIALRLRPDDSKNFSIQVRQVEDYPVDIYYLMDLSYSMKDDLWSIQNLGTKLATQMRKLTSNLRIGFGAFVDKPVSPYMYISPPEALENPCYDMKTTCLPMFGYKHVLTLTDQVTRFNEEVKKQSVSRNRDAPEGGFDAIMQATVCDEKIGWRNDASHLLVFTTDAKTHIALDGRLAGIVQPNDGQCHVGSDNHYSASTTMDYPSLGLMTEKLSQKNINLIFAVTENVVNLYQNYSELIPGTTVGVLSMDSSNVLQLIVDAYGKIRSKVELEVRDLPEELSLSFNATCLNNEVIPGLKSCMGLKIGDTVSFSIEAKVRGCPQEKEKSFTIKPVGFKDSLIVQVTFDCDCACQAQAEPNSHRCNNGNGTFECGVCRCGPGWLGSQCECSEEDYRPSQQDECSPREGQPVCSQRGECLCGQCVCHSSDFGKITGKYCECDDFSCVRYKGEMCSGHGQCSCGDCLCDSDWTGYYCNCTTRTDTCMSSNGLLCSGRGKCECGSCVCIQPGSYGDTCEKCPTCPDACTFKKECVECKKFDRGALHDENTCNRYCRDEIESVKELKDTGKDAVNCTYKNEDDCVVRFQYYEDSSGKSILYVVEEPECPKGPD
Excerpt: The in vitro integrin αvβ3 binding assay measures the binding affinity for different compounds (i.e., different conjugates or structures) with immobilized integrin αvβ3 receptor. The IC50 value is the compound concentration at which the compound displaces 50% of a labelled integrin αvβ3 ligand from the integrin αvβ3 receptor, which inhibits 50% of the labelled integrin αvβ3 ligand from binding to the integrin αvβ3 receptor.
Ninety-six polystyrene microtiter plate was coated with fibrinogen and incubated at 4° C. overnight. The wells were blocked with 3% BSA for 2 hours at room temperature and were washed with buffer A (50 mM Tris/HCl, 100 mM NaCl, 1 mM CaCl2), 1 mM MgCl2, 1% BSA) three times. Integrins αvβ3 and increasing concentrations of the compound of interest were added and incubated for 2 hours at room temperature, and then wells were washed three times with buffer A and incubated with a streptavidin HRP conjugate (1:1000 in buffer A) for 1 hour at room temperature. Finally, wells were washed three times with buffer A and […] peroxidase substrate TMB was added, and the reaction was terminated after 30 minutes with 50 µL of 450 nm stop solution for TMB. Absorbance was determined at 450 nm with a Microplate Reader (Bio-Rad, Hercules, CA, USA). […]

For `Nc1ccn([C@@H]2O[C@H](CO)[C@@H](O)C2(F)F)c(=O)n1` [Gemcitabine, reference compound], the IC50 ([1]; Homo sapiens) was 1790 nM.

`CC(C)[C@H](NC(=O)CCOCCOCCOCc1cn(CCOCCOCCOCCOCCOCCOCCOCCOCCOCCOCCOCCOCCOCCOCCOCCOCCOCCOCCOCCOCCOCCOCCOCCOCCOCCOCCOCCOCCOCCOCCOCCOCCOCCOCCOCCOCCC(=O)NC[C@H](NS(=O)(=O)c2ccccc2)C(=O)O)nn1)C(=O)N[C@@H](CCCNC(N)=O)C(=O)Nc1ccc(CO)cc1` [conjugate 59] gave an IC50 [2] of 103 ± 1.7 nM.

In the case of `CC(C)[C@H](NC(=O)CCc1cn(CCOCCOCCOCCOCCOCCOCCOCCOCCOCCOCCOCCOCCOCCOCCOCCOCCOCCOCCOCCOCCOCCOCCOCCOCCOCCOCCOCCOCCOCCOCCOCCOCCOCCOCCOCCNC(=O)CC[C@H](NS(=O)(=O)c2ccccc2)C(=O)O)nn1)C(=O)N[C@@H](CCCNC(N)=O)C(=O)Nc1ccc(CO)cc1` [conjugate 74], the IC50 [1] is reported as > 10000 nM, the “cell viability result in words” value [3] is reported as “does not cause cell death” and the IC50 [3] is reported as > 10000 nM. For the same molecule, the IC50 [2] was 54 ± 2.2 nM.

With `CC[C@H](C)[C@@H](C(CC(=O)N1CCC[C@H]1[C@H](OC)[C@@H](C)C(=O)N[C@H](C)[C@@H](O)c1ccccc1)OC)N(C)C(=O)[C@@H](NC(=O)[C@@H](NC)C(C)C)C(C)C` (some centres unmarked) [MMAE, monomethylauristatin E, reference compound] the IC50 ([1]; Homo sapiens) was 3.85 nM, the IC50 ([3]; Homo sapiens, U-87 MG) was 2.51 nM and the “average prostate cancer tumor volume” value [4] was “smaller tumor volumes than the non-MMAE conjugate 59”. The “IVIS average photons (viable tumor tissue)” value [4] was “smaller IVIS® numbers than the non-MMAE conjugate 59”, the “average prostate cancer tumor weight” value [4] was “smaller tumor weights than the non-MMAE conjugate 59” and the “toxicity indicated by body weight” value [5] was “high toxicity”. For the same molecule, the average body weight [5] was “a loss of body weight over the course of the experiment” and the “solubility in straight PBS” value [6] was “less soluble in straight PBS”.

In the case of `CCc1c2c(nc3ccc(O)cc13)-c1cc3c(c(=O)n1C2)COC(=O)[C@]3(O)CC` [SN38, reference compound], the IC50 ([1]; Homo sapiens) is reported as 5.67 nM and the IC50 ([3]; Homo sapiens, U-87 MG) is reported as 4.32 nM.

For `NC(=O)c1cccc2cn(-c3ccc([C@@H]4CCCNC4)cc3)nc12` [Niraparib, reference compound], the IC50 ([3]; Homo sapiens, U-87 MG) was 155 nM.

With `CC(C)[C@H](NC(=O)CCc1cn(CCOCCOCCOCCOCCOCCOCCOCCOCCOCCOCCOCCOCCOCCOCCOCCOCCOCCOCCOCCOCCOCCOCCOCCOCCOCCOCCOCCOCCOCCOCCOCCOCCOCCOCCOCCNC(=O)CCC(NS(=O)(=O)c2ccccc2)C(=O)O)nn1)C(=O)N[C@@H](CCCNC(N)=O)C(=O)Nc1ccc(COC(=O)Nc2ccn([C@@H]3O[C@H](CO)C(O)C3(F)F)c(=O)n2)cc1` (some centres unmarked) [conjugate 45] the IC50 [1] was 3970 nM and the IC50 [7] was 0.84 ± 0.16 nM.

Molecule `CC(C)[C@H](NC(=O)CCc1cn(CCOCCOCCOCCOCCOCCOCCOCCOCCOCCOCCOCCOCCOCCOCCOCCOCCOCCOCCOCCOCCOCCOCCOCCOCCOCCOCCOCCOCCOCCOCCOCCOCCOCCOCCOCCNC(=O)CC[C@H](NS(=O)(=O)c2ccccc2)C(=O)O)nn1)C(=O)N[C@@H](CCCNC(N)=O)C(=O)Nc1ccc(COC(=O)N2CCCC(c3ccc(-n4cc5cccc(C(N)=O)c5n4)cc3)C2)cc1` (some centres unmarked) [conjugate 40] has an IC50 [3] of 1740 nM and an IC50 [7] of 3.36 ± 0.22 nM.

For `CC[C@H](C)[C@@H]([C@@H](CC(=O)N1CCC[C@H]1[C@H](OC)[C@@H](C)C(=O)N[C@H](C)[C@@H](O)c1ccccc1)OC)N(C)C(=O)[C@@H](NC(=O)[C@H](C(C)C)N(C)C(=O)OCc1ccc(NC(=O)[C@H](CCCNC(N)=O)NC(=O)[C@@H](NC(=O)CCOCCOCCOCc2cn(CCOCCOCCOCCOCCOCCOCCOCCOCCOCCOCCOCCOCCOCCOCCOCCOCCOCCOCCOCCOCCOCCOCCOCCOCCOCCOCCOCCOCCOCCOCCOCCOCCOCCOCCOCCOCCC(=O)NC[C@H](NS(=O)(=O)c3ccccc3)C(=O)O)nn2)C(C)C)cc1)C(C)C` [conjugate 61], the “average prostate cancer tumor volume” value [4] was “inhibits tumor growth more than the PEG15 conjugate 62”, the “IVIS average photons (viable tumor tissue)” value [4] was “much smaller than the smaller PEG15 conjugate 62 and MMAE alone” and the “average prostate cancer tumor weight” value [4] was “comparable to the smaller PEG15 MMAE conjugate 62”. For the same molecule, the “toxicity indicated by body weight” value [5] was “mild toxicity” and the average body weight [5] was “only a small difference compared to the PBS control”.

For `CCc1c2c(nc3ccc(O)cc13)-c1cc3c(c(=O)n1C2)COC(=O)[C@@]3(CC)OC(=O)N(C)CCN(C)C(=O)OCc1ccc(NC(=O)[C@H](CCCNC(N)=O)NC(=O)[C@@H](NC(=O)CCc2cn(CCOCCOCCOCCOCCOCCOCCOCCOCCOCCOCCOCCOCCOCCOCCOCCOCCOCCOCCOCCOCCOCCOCCOCCOCCOCCOCCOCCOCCOCCOCCOCCOCCOCCOCCOCCOC)nn2)C(C)C)cc1` [conjugate 73], the IC50 [1] was > 10000 nM, the “cell viability result in words” value [3] was “no activity” and the IC50 [3] was > 10000 nM.

Source: US12624109B2, “αv-integrin targeted small molecule drug conjugates” (TargetThera LLC, priority 2023, dated 2026)
